The record followed here is PubChem BioAssay AID1117337 (Cheminformatics & Chemogenomics Research Group (CCRG), …, 2015).

Calls of active or inactive are those of the source. No rule for the calls is given here. Where a SMILES comes first, the peptide text is derived from it.

In this assay the test system is ADSC/ECFC co-culture, VEGF-stimulated, CD31 tube area. The experiment in a line: inhibition of endothelial tube formation, dose response, imaging, VEGF stimulation, CD31 staining, tube area, IC50 (AID 1117337).
Turning to `CC1=C(/C=C/C(C)=C/C=C/C(C)=C/C(=O)Nc2ccc(O)cc2)C(C)(C)CCC1`, the half-maximal inhibitory concentration (IC50) (commonly the midpoint of a concentration-inhibition curve) was 1.34 µM. As for `Cc1[nH]cnc1C[C@H]1CCc2c(C)c3ccccc3n2C1=O`, the IC50 is > 10 µM (inactive). The figure for `CC(=O)Oc1ccc(C2(c3ccc(OC(C)=O)cc3)Oc3ccccc3NC2=O)cc1` is 2.27 µM; for `CCCCC(CC)COC(=O)CC(C(=O)OCC(CC)CCCC)S(=O)(=O)O` (stereo unspecified) it is > 10 µM (inactive); for `CC(=O)Oc1cccc2c1C(=O)c1c(OC(C)=O)cc(C(=O)O)cc1C2=O` it is > 10 µM (inactive). Consider `CCCCCCCCCCCCCCCC(=O)OCC=C(C)C=CC=C(C)C=CC1=C(C)CCCC1(C)C`, for which the IC50 was > 10 µM (inactive).

As to `COC(=O)c1ccccc1C(=O)OC`, the IC50 is > 10 µM (inactive). Turning to `C[C@@H](NCCCc1cccc(C(F)(F)F)c1)c1cccc2ccccc12`, the IC50 was > 10 µM (inactive). For `O=C(Nc1ccc(Br)cc1)c1cc(Br)c(Br)s1`, the IC50 is > 10 µM (inactive). Regarding `CCCCN(CCCC)CCC(O)c1cc2c(Cl)cc(Cl)cc2c2cc(C(F)(F)F)ccc12` (stereo unspecified), the IC50 is > 10 µM (inactive). In the case of `COC(=O)C1=C(C)NC(C)=C(C(=O)OC(C)(C)CN(C)CCC(c2ccccc2)c2ccccc2)C1c1cccc([N+](=O)[O-])c1` (stereo unspecified), the IC50 is > 10 µM (inactive). As for `CCN(CC)CCOc1ccc(C(O)(Cc2ccc(Cl)cc2)c2ccc(C)cc2)cc1` (stereo unspecified), the IC50 is 3.21 µM. In the case of `CSc1ccc2c(c1)N(CCC1CCCCN1C)c1ccccc1S2` (stereo unspecified), the IC50 is > 10 µM (inactive). As to `CCCCCCC[N+](CC)(CC)CCCCc1ccc(Cl)cc1`, the IC50 is 6.34 µM (inactive). Regarding `O=C1c2ccccc2C(=O)C1C(=O)C(c1ccccc1)c1ccccc1`, the IC50 was > 10 µM (inactive). For `Cc1cc(-c2ccc(N=Nc3c(S(=O)(=O)O)cc4cc(S(=O)(=O)O)cc(N)c4c3O)c(C)c2)ccc1N=Nc1c(S(=O)(=O)O)cc2cc(S(=O)(=O)O)cc(N)c2c1O`, the IC50 is > 10 µM (inactive).

For `CN1CCN(C2Cc3ccccc3Sc3ccc(Cl)cc32)CC1` (stereo unspecified), the IC50 is 5.23 µM (inactive). For `CN1CCN(CCCN2c3ccccc3Sc3ccc(S(=O)(=O)N(C)C)cc32)CC1`, the IC50 was > 10 µM (inactive).

On to `Cc1ccc([N+](=O)[O-])[c]2c1[O][Hg]2`, for which the IC50 was 0.668 µM. To `CC(=O)Nc1ccn(C2COC(COC(=O)c3ccccc3)O2)c(=O)n1` (stereo unspecified) belongs 2.33 µM; to `Clc1ccc(CO/N=C(\Cn2ccnc2)c2ccc(Cl)cc2Cl)c(Cl)c1`, > 10 µM (inactive). To `Oc1ccc(O)cc1` belongs > 10 µM (inactive); to `Oc1ccc2[nH]cc(CCCCN3CC=C(c4ccccc4)CC3)c2c1`, 4.04 µM; to `Cc1cc2nc3ccc(=[N+](C)C)cc-3sc2cc1N`, 2.45 µM. The figure for `CC(=O)O[C@H]1C[C@H](O[C@H]2[C@@H](O)C[C@H](O[C@@H]3[C@@H](O)C[C@H](O[C@H]4CC[C@@]5(C)[C@H](CC[C@@H]6[C@H]5C[C@@H](O)[C@]5(C)[C@@H](C7=CC(=O)OC7)CC[C@]65O)C4)O[C@@H]3C)O[C@@H]2C)O[C@H](C)[C@H]1O[C@@H]1O[C@H](CO)[C@@H](O)[C@H](O)[C@@H]1O` is 0.0702 µM. Regarding `CN1CC[C@H](c2c(O)cc(O)c3c(=O)cc(-c4ccccc4Cl)oc23)[C@H](O)C1`, the half-maximal inhibitory concentration (IC50) was 0.114 µM.

With `CC1=C(C(=O)OC(C)C)C(c2cccc([N+](=O)[O-])c2)C(C(=O)OC2CN(C(c3ccccc3)c3ccccc3)C2)=C(N)N1` (stereo unspecified), the IC50 is 3.58 µM. To `COC(=O)Nc1nc2ccc(C(=O)c3cccs3)cc2[nH]1` belongs 0.102 µM; to `CN(C)c1ccc(C(=C2C=CC(=[N+](C)C)C=C2)c2ccccc2)cc1`, 0.0605 µM. Take `CC(COc1ccccc1)NN` (stereo unspecified): the IC50 is > 10 µM (inactive). To `CCCCCCCCCCCCCCCCNc1ccc(C(=O)O)cc1` belongs 0.367 µM. Turning to `Cc1cc(N)c2ccccc2[n+]1CCCCCCCCCC[n+]1c(C)cc(N)c2ccccc21`, the IC50 is > 10 µM (inactive). Consider `C=C(C)[C@H]1Cc2c(ccc3c2O[C@@H]2COc4cc(OC)c(OC)cc4[C@@H]2C3=O)O1`, for which the IC50 is 0.0257 µM.

For the compound `Cc1c(C)c2c(c(C)c1OC(=O)CCC(=O)O)CC[C@@](C)(CCC[C@H](C)CCC[C@H](C)CCCC(C)C)O2`, the IC50 is > 10 µM (inactive). Take `CCCCCCOC(=O)c1cccnc1`: the IC50 is > 10 µM (inactive). Take `OCCN1CCN(CCCN2c3ccccc3Sc3ccc(C(F)(F)F)cc32)CC1`: the IC50 is > 10 µM (inactive).

For the compound `CCCCCCCCCCCCCCCCCCOP(=O)([O-])OC1CC[N+](C)(C)CC1`, the IC50 was > 10 µM (inactive). As to `CCCCCCCC(=O)OCC(COC(=O)CCCCCCC)OC(=O)CCCCCCC`, the IC50 is > 10 µM (inactive). The figure for `COc1ccccc1N1CCN(CC(O)COc2cc(OC)c(OC)c(OC)c2)CC1` (stereo unspecified) is > 10 µM (inactive); for `Cc1cc(OCCOCC[N+](C)(C)Cc2ccccc2)ccc1C(C)(C)CC(C)(C)C` it is > 10 µM (inactive); for `COc1cc(S(N)(=O)=O)cc(C(=O)O)c1OC` it is > 10 µM (inactive).

For the compound `O=C(OCCO)c1ccccc1O`, the IC50 is > 10 µM (inactive). Turning to `Cc1c(O)cc2c(c1C)O[C@](C)(CCC[C@H](C)CCC[C@H](C)CCCC(C)C)CC2`, the IC50 was > 10 µM (inactive). Take `CC(C)(C)CC(C)(C)c1ccc(OCCOCC[N+](C)(C)Cc2ccccc2)cc1`: the IC50 was 3.74 µM. To `CC[C@@]1(O)C(=O)OCc2c1cc1n(c2=O)Cc2c-1nc1ccccc1c2/C=N/OC(C)(C)C` belongs 0.002 µM; to `CCCCCCCCCCCCCCCCCCNC(=O)OC1CCN(C(=O)OC[C@H](COC(=O)N(Cc2cccc[n+]2CC)C(=O)c2ccccc2OC)OC)CC1`, 1.5 µM; to `Cc1cc(C(C#N)c2ccc(Cl)cc2)c(Cl)cc1NC(=O)c1cc(I)cc(I)c1O` (stereo unspecified), > 10 µM (inactive).

In the case of `O=C(CCCN1CCC(O)(c2cccc(C(F)(F)F)c2)CC1)c1ccc(F)cc1`, the IC50 was > 10 µM (inactive). In the case of `CCCSS/C(CCO)=C(\C)N(C=O)Cc1cnc(C)nc1N`, the IC50 is > 10 µM (inactive). For the compound `O=C1OC(OC(=O)c2cccnc2Nc2cccc(C(F)(F)F)c2)c2ccccc21` (stereo unspecified), the IC50 was > 10 µM (inactive). To `COc1cc2nc(N3CCN(C(=O)C4COc5ccccc5O4)CC3)nc(N)c2cc1OC` (stereo unspecified) belongs > 10 µM (inactive). `Cc1cccc(C)c1NC(=O)CN1CCN(CCCC(c2ccc(F)cc2)c2ccc(F)cc2)CC1`: the IC50 is > 10 µM (inactive).

As to `COC(=O)C(Cl)C(=O)OC`, the IC50 is > 10 µM (inactive).

For the compound `NC(=NCCCCCCN=C(N)/N=C(\N)Nc1ccc(Cl)cc1)/N=C(\N)Nc1ccc(Cl)cc1`, the IC50 was 1.35 µM.

As to `CC(C)=CCOc1ccc(/C=C/C(=O)c2ccc(OCC=C(C)C)cc2OCC(=O)O)cc1`, the IC50 was > 10 µM (inactive). As to `CCCCC(CC)CN=C(N)NC(N)=NCCCCCCN=C(N)NC(N)=NCC(CC)CCCC` (stereo unspecified), the 50% inhibitory concentration (IC50) was 0.408 µM.

In the case of `CCCCCCCCCCC[C@@H](C[C@@H]1OC(=O)[C@H]1CCCCCC)OC(=O)[C@H](CC(C)C)NC=O`, the IC50 is > 10 µM (inactive). Turning to `Cc1ccc(Nc2nccc(N(C)c3ccc4c(C)n(C)nc4c3)n2)cc1S(N)(=O)=O`, the IC50 is 0.0465 µM. `Cc1ccc2c(Br)cc(Br)c(O)c2n1`: the IC50 is > 10 µM (inactive). In the case of `O=C(c1ccc(F)cc1)C1CCN(CCn2c(=O)[nH]c3ccccc3c2=O)CC1`, the IC50 was > 10 µM (inactive). For `C/C=C(/C(=C/C)c1ccc(OC(C)=O)cc1)c1ccc(OC(C)=O)cc1`, the IC50 was > 10 µM (inactive). Take `O=[N+]([O-])C(Br)(CO)CO`: the IC50 was > 10 µM (inactive). The figure for `CN(C)CCOC1=Cc2ccccc2Sc2ccc(Cl)cc21` is > 10 µM (inactive); for `CCCCC1C(=O)N(c2ccccc2)N(c2ccc(O)cc2)C1=O` (stereo unspecified) it is 3.29 µM; for `C/C(=N\O)[C@@H](C)NCC(C)(C)CN[C@H](C)/C(C)=N/O` it is > 10 µM (inactive). As for `CCCn1cnc2c1c(=O)n(CCCCC(C)=O)c(=O)n2C`, the IC50 was > 10 µM (inactive). Turning to `O=C(OCc1ccccc1)c1cccnc1`, the IC50 was > 10 µM (inactive).

On to `COc1ccccc1OCCNCC(O)COc1cccc2[nH]c3ccccc3c12` (stereo unspecified), for which the IC50 is > 10 µM (inactive). Consider `CC(=O)[C@]1(O)Cc2c(O)c3c(c(O)c2[C@@H](O[C@H]2C[C@H](N)[C@H](O)[C@H](C)O2)C1)C(=O)c1ccccc1C3=O`, for which the IC50 is 0.0208 µM. To `O=C(Nc1ccc(S(=O)(=O)N2CCOCC2)cc1)c1cc(Cl)ccc1NS(=O)(=O)c1ccc(Cl)s1` belongs > 10 µM (inactive); to `CCCCCCCCCCCC(=O)[O][Sn]([CH2]CCC)([CH2]CCC)[O]C(=O)CCCCCCCCCCC`, 2.01 µM. Take `O=c1oc2c(O)c(O)cc3c(=O)oc4c(O)c(O)cc1c4c23`: the IC50 was > 10 µM (inactive). `CCN(CC)CCNc1ccc(CO)c2sc3ccccc3c(=O)c12`: the IC50 was 8.35 µM (inactive). Turning to `COc1cccc2c1C(=O)c1c(O)c3c(c(O)c1C2=O)C[C@@](O)(C(=O)CO)CC3OC1CC(N2CCOC(OC)C2)C(O)C(C)O1` (stereo partly specified), the concentration for half-maximal inhibition (IC50) is 0.003 µM. As to `Nc1c2ccccc2nc2ccccc12`, the IC50 is > 10 µM (inactive). As for `Oc1c(Cl)cc(Cl)c2cccnc12`, the IC50 was 2 µM. As to `CNS(=O)(=O)CCc1ccc2[nH]cc(C3CCN(C)CC3)c2c1`, the IC50 is > 10 µM (inactive). To `CCCCC[C@@H](O)CC[C@H]1[C@@H]2Cc3cccc(OCC(=O)O)c3C[C@@H]2C[C@@H]1O` belongs > 10 µM (inactive); to `c1ccc2c(c1)Sc1ccccc1N2CC1CN2CCC1CC2` (stereo unspecified), 9.44 µM (inactive). Take `CN(C)CCCN1c2ccccc2Sc2ccc(Cl)cc21`: the IC50 is > 10 µM (inactive). Turning to `NC(=O)[C@@H]1CSSCCC(=O)N[C@@H](CCCCN=C(N)N)C(=O)NCC(=O)N[C@@H](CC(=O)O)C(=O)N[C@@H](Cc2c[nH]c3ccccc23)C(=O)N2CCC[C@H]2C(=O)N1` (HELM PEPTIDE1{[O=C(CCS[*:3])[*:2]].[N=C(N)NCCCC[C@H](N[*:1])C(=O)[*:2]].G.D.W.P.C.[am]}$PEPTIDE1,PEPTIDE1,1:R3-7:R3$$$V2.0), the IC50 was > 10 µM (inactive).
